Tests used:
Escherichia coli [1] = experiment: […] antibacterial activity (synergistic study) against Escherichia coli OXA-1; assay type: functional
Enterobacter cloacae [2] = experiment: […] antibacterial activity (synergistic study) against Enterobacter cloacae 12368; assay type: functional
Enterobacter cloacae [3] = experiment: […] antibacterial activity (synergistic study) against Enterobacter cloacae P99; assay type: functional
Staphylococcus aureus = experiment: […] antibacterial activity (synergistic study) against Staphylococcus aureus ATCC 29213; assay type: functional
Escherichia coli [4] = experiment: […] antibacterial activity (synergistic study) against Escherichia coli TEM-1; assay type: functional
Escherichia coli [5] = experiment: […] antibacterial activity (synergistic study) against Escherichia coli TEM-2; assay type: functional
Beta-lactamase [6] = molecular target: T1, Beta-lactamase (Enterobacter cloacae, UniProt P05364)
Description: Inhibitory activity against beta-Lactamase enzyme derived from Enterobacter cloacae SC 12368 E-2

Beta-lactamase TEM = Beta-lactamase TEM (Escherichia coli, UniProt P62593); experiment: Inhibitory activity against beta-Lactamase enzyme derived from Escherichia coli WC3310 TEM-2
Beta-lactamase [7] = molecular target: T1, Beta-lactamase; remark: listed apart in the source
Description: Inhibitory activity against beta-Lactamase enzyme derived from Enterobacter cloacae P99

Chain of Beta-lactamase TEM (P62593 whole entry): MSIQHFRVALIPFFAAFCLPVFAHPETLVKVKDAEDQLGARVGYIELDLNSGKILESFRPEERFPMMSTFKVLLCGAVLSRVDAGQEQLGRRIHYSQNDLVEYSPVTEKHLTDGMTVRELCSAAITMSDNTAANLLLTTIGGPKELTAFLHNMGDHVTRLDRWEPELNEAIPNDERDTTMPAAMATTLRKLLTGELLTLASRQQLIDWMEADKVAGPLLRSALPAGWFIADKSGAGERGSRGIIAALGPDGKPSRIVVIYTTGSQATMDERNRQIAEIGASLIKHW
T1 sequence (P05364 whole entry): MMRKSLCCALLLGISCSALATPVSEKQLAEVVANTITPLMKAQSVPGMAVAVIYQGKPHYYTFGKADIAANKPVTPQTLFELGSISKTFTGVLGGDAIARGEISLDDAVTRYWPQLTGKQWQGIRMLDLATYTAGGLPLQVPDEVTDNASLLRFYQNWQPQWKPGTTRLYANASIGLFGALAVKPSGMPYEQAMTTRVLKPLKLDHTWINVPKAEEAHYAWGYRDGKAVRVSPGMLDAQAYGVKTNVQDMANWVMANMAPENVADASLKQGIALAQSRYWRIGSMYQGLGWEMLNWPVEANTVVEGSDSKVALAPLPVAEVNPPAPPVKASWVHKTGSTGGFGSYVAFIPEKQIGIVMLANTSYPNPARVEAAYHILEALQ

Compound	MIC (Escherichia coli [1]) [µg/mL]	MIC (Enterobacter cloacae [2]) [µg/mL]	MIC (Enterobacter cloacae [3]) [µg/mL]	MIC (Staphylococcus aureus) [µg/mL]	MIC (Escherichia coli [4]) [µg/mL]	MIC (Escherichia coli [5]) [µg/mL]	IC50 (Beta-lactamase [6]) [nM]	IC50 (Beta-lactamase TEM) [nM]	IC50 (Beta-lactamase [7]) [nM]
CC(=O)OCC1=C(C(=O)[O-])N2C(=O)/C(=C/C(=O)OC(C)(C)C)[C@H]2S(=O)(=O)C1.[Na+]	> 128	> 128	> 128	4	> 128	> 128	–	–	–
CC(C)(C)OC(=O)/C=C1/C(=O)N2[C@@H](C(=O)[O-])C(C)(C)S(=O)(=O)[C@H]12.[Na+]	> 128	> 128	> 128	> 128	> 128	> 128	13600	136	4090
CC1(C)[C@H](C(=O)[O-])N2C(=O)/C(=C/C(=O)[O-])[C@H]2S1(=O)=O.[Na+].[Na+]	> 128	> 128	> 128	> 128	> 128	> 128	91	120	45
COC(=O)/C=C1/C(=O)N2[C@@H](C(=O)[O-])C(C)(C)S(=O)(=O)[C@H]12.[Na+]	> 128	> 128	> 128	> 128	> 128	> 128	615	308	154
CCN1CCN(C(=O)NC(C(=O)N[C@H]2C(=O)N3[C@H]2SC(C)(C)[C@H]3C(=O)O)c2ccccc2)C(=O)C1=O.COC(=O)/C=C1/C(=O)N2[C@@H](C(=O)[O-])C(C)(C)S(=O)(=O)[C@H]12.[Na+] (some centres undefined)	16	16	128	1	64	128	–	–	–
CC(=O)OCC1=C(C(=O)[O-])N2C(=O)/C(=C/C(=O)[O-])[C@H]2S(=O)(=O)C1.[Na+].[Na+]	> 128	> 128	> 128	16	> 128	> 128	> 20000	400	> 20000
CC(C)(C)OC(=O)/C=C1/C(=O)N2[C@@H]1SC(C)(C)[C@@H]2C(=O)O	–	–	–	–	–	–	> 20000	> 20000	8950
COC(=O)/C=C1/C(=O)N2C(C(=O)O)=C(COC(C)=O)CS[C@H]12	–	–	–	–	–	–	> 20000	> 20000	> 20000
CC(=O)/C=C1/C(=O)N2[C@@H]1SC(C)(C)[C@@H]2C(=O)O	–	–	–	–	–	–	5410	3	361
COC(=O)/C=C1/C(=O)N2[C@@H]1SC(C)(C)[C@@H]2C(=O)O	–	–	–	–	–	–	> 20000	> 20000	> 20000
COC(=O)/C=C1/C(=O)N2C(C(=O)[O-])=C(COC(C)=O)CS(=O)(=O)[C@H]12.[Na+]	> 128	> 128	> 128	> 128	> 128	> 128	> 20000	37	> 20000
C=C=C1C(=O)N2C(C(=O)O)=C(COC(C)=O)CS(=O)(=O)[C@H]12	–	–	–	–	–	–	260	> 20000	130
CC(=O)OCC1=C(C(=O)O)N2C(=O)/C(=C/C(=O)O)[C@H]2SC1	–	–	–	–	–	–	> 20000	> 20000	> 20000
CC1(C)[C@H](C(=O)[O-])N2C(=O)/C(=C/C(=O)[O-])[C@H]2S1(=O)=O.CCN1CCN(C(=O)NC(C(=O)N[C@H]2C(=O)N3[C@H]2SC(C)(C)[C@H]3C(=O)O)c2ccccc2)C(=O)C1=O.[Na+].[Na+] (some centres undefined)	16	16	128	4	32	64	–	–	–
CC(=O)OCC1=C(C(=O)[O-])N2C(=O)/C(=C/C(=O)OC(C)(C)C)[C@H]2S(=O)(=O)C1.CCN1CCN(C(=O)NC(C(=O)N[C@H]2C(=O)N3[C@H]2SC(C)(C)[C@H]3C(=O)O)c2ccccc2)C(=O)C1=O.[Na+] (some centres undefined)	64	16	128	4	64	128	–	–	–
C=C1C(=O)N2C(C(=O)O)=C(COC(C)=O)CS(=O)(=O)[C@H]12	–	–	–	–	–	–	25	800	25
CC(=O)OCC1=C(C(=O)[O-])N2C(=O)/C(=C/C(=O)[O-])[C@H]2S(=O)(=O)C1.CCN1CCN(C(=O)NC(C(=O)N[C@H]2C(=O)N3[C@H]2SC(C)(C)[C@H]3C(=O)O)c2ccccc2)C(=O)C1=O.[Na+].[Na+] (some centres undefined)	64	32	128	4	64	128	–	–	–
CC1(C)S[C@@H]2/C(=C\C(=O)O)C(=O)N2[C@H]1C(=O)O	–	–	–	–	–	–	> 20000	> 20000	13900
CCN1CCN(C(=O)NC(C(=O)N[C@H]2C(=O)N3[C@H]2SC(C)(C)[C@H]3C(=O)O)c2ccccc2)C(=O)C1=O.COC(=O)/C=C1/C(=O)N2C(C(=O)[O-])=C(COC(C)=O)CS(=O)(=O)[C@H]12.[Na+] (some centres undefined)	64	16	128	4	32	64	–	–	–
CC(C)(C)OC(=O)/C=C1/C(=O)N2[C@@H](C(=O)[O-])C(C)(C)S(=O)(=O)[C@H]12.CCN1CCN(C(=O)NC(C(=O)N[C@H]2C(=O)N3[C@H]2SC(C)(C)[C@H]3C(=O)O)c2ccccc2)C(=O)C1=O.[Na+] (some centres undefined)	32	32	128	2	128	> 128	–	–	–
C[C@]1(Cn2ccnn2)[C@H](C(=O)O)N2C(=O)C[C@H]2S1(=O)=O (single isomer, unassigned) [TAZOBACTAM]	> 128	> 128	> 128	64	> 128	> 128	–	–	–
CCN1CCN(C(=O)N[C@@H](C(=O)NC2C(=O)N3C2SC(C)(C)C3C(=O)O)c2ccccc2)C(=O)C1=O.C[C@]1(Cn2ccnn2)[C@H](C(=O)O)N2C(=O)C[C@H]2S1(=O)=O (single isomer, unassigned; form 1)	16	16	16	1	2	8	–	–	–
CCN1CCN(C(=O)N[C@@H](C(=O)NC2C(=O)N3C2SC(C)(C)C3C(=O)O)c2ccccc2)C(=O)C1=O (single isomer, unassigned; form 2) [PIPERACILLIN]	64	16	> 128	4	> 128	> 128	–	–	–

— ChEMBL document CHEMBL1128766, “The synthesis and lactamase inhibitory activity of 6-(carboxymethylene)penicillins and 7-(carboxymethylene)cephalosporins” (Bioorg Med Chem Lett, 1995)
